Key:
[1] = cited from earlier work
[2] = Low-speed centrifugation to sediment unincorporated HPPH; type: physicochemical; conditions: 6,000 rpm, 20-30 minutes, HBS
Method: HPPH-loaded vesicles were placed in microcentrifuge tubes and centrifugations were carried out at 6,000 rpm (˜3000 RCF) for 30 minutes at 20-25° C. using a fixed-angle rotor centrifuge. Supernatants containing the vesicle-incorporated HPPH were collected, and any unincorporated HPPH, which aggregates in aqueous environment, was sedimented in the pellet fraction. A sample of an equivalent amount of free HPPH was suspended in HBS (without the lipids), and mixed by vortexing. The free HPPH aggregated in the buffer, which could be sedimented in the pelleted fraction upon centrifugation at low-speed as described above. This protocol presented a simple procedure to remove unincorporated HPPH from the vesicle-associated HPPH.
Free, unincorporated HPPH aggregates in aqueous buffer due to its insolubility, and can be pelleted upon sedimentation by low-speed centrifugation. Size exclusion chromatography (PD10 columns, GE Scientific) was used to separate unincorporated HPPH from the vesicles; however, in these embodiments, it was observed that sonication of HPPH dispersion in the HBS (in the absence of lipids) generated smaller HPPH aggregates that coeluted (in part) with vesicle-associated HPPH on the PD10 column. […] The HPPH suspended in HBS (in the absence of lipids) remained in suspension prior to centrifugation as determined by absorbance measurements. […]

[3] = 661 nm laser treatment (HPPH photodamage); type: physicochemical; conditions: five minutes
Method: 661 nm Laser Treatment of Vesicle20-HPPH: Vesicle20-HPPH (containing 50-100 μg lipid & 2.5-5 μg HPPH) were placed in a microcentrifuge tube and irradiated horizontally in a box fitted with a diode laser cube at room temperature. Irradiation was done for five minutes using the 661 nm laser (Coherent Cube Part Number 1130061) at a power output of 90 mW (125 mW/cm^2, as measured by the Thorlabs PM200 Energy Meter with the S121C Photodiode Power Sensor). Free HPPH dispersed in Tween 80 (Tween 80-HPPH) (4) and DPPC:DC8,9PC:DSPEG2000 vesicles (Table 1B) were used as controls to compare the extents of photodamage.
The efficiency of photoactivation by HPPH upon laser exposure depends on its environment and aggregation state. Laser treatment of HPPH results in photodamage and serves as an indication of its activity. Therefore, the photodamage of vesicle-formulated HPPH was compared with Tween 80-HPPH and a formulation comprising DPPC and a lower concentration of DSPE-PEG2000 (see Table 2). The extent of photodamage was tested using Vesicle10-HPPH containing 1:0.05 Lipid:HPPH ratios (Table 2) upon treatment with 661 nm laser for five minutes.

CCCCCCOC(C)c1c(C)c2cc3nc(c4c5[nH]c(cc6nc(cc1[nH]2)C(C)=C6CC)c(C)c5C(=O)C4)[C@@H](CCC(=O)O)[C@@H]3C (stereo partly shown) [HPPH, 2-[1-hexyloxyethyl]-2-devinyl pyropheophorbide-a]
molar extinction ε ([1]; at 665 nm): 47,500 M^−1 cm^−1
log P ([1]; physiological pH): 5.6
HPPH sedimented into the pelleted fraction [2]: nearly complete sedimentation
extent of photodamage (HPPH fluorescence remaining after laser) [3]: did not result in a decrease in fluorescence

— patent publication US12178907B2, “Binary lipid bilayer-containing vesicles comprising embedded cytotoxic agents and methods of making and using the same” (The USA, as represented by the Secretary, Department of …, priority 2018, dated 2024)
